Drawing on the supplement of paper PMC10307832, this text covers relative viability for five cell lines.

Experiment in all cases: relative viability (nuclei count vs DMSO), 5 days (fraction); higher = more cells survive
Compound in the test “Tozasertib + Linsitinib”: Cc1cc(Nc2cc(N3CCN(C)CC3)nc(Sc3ccc(NC(=O)C4CC4)cc3)n2)n[nH]1 [Tozasertib] + C[C@]1(O)C[C@@H](c2nc(-c3ccc4ccc(-c5ccccc5)nc4c3)c3c(N)nccn32)C1 [Linsitinib] (partner 1 µM)
In a few lines: (§1)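 Lung cancer cell lines were pin-tool dosed in 1536-well plates on the day after seeding, with either a lone drug or a fixed anchor-drug dose plus five library-drug doses (not always all listed) in √10 steps. Nuclei were counted on 4× images after 5 days. Relative viability is the ratio of treated-well to vehicle-well nuclei counts, with each value a median of duplicate plates.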

Compound in the test “Tozasertib + Phenformin”: Cc1cc(Nc2cc(N3CCN(C)CC3)nc(Sc3ccc(NC(=O)C4CC4)cc3)n2)n[nH]1 [Tozasertib] + N=C(N)NC(=N)NCCc1ccccc1 [Phenformin] (partner 250 µM)
In a few lines:
as §1

Compound in the test “Tozasertib + Decitabine”: Cc1cc(Nc2cc(N3CCN(C)CC3)nc(Sc3ccc(NC(=O)C4CC4)cc3)n2)n[nH]1 [Tozasertib] + Nc1ncn([C@H]2C[C@H](O)[C@@H](CO)O2)c(=O)n1 [Decitabine] (partner 2 µM)
In a few lines: as §1

Compound in the test “Tozasertib + Trametinib”: Cc1cc(Nc2cc(N3CCN(C)CC3)nc(Sc3ccc(NC(=O)C4CC4)cc3)n2)n[nH]1 [Tozasertib] + CC(=O)Nc1cccc(-n2c(=O)n(C3CC3)c(=O)c3c(Nc4ccc(I)cc4F)n(C)c(=O)c(C)c32)c1 [Trametinib] (partner 0.02 µM)
In a few lines: as §1

Compound in the test “Tozasertib + AZD7762”: Cc1cc(Nc2cc(N3CCN(C)CC3)nc(Sc3ccc(NC(=O)C4CC4)cc3)n2)n[nH]1 [Tozasertib] + NC(=O)Nc1cc(-c2cccc(F)c2)sc1C(=O)N[C@H]1CCCNC1 [AZD7762] (partner 0.2 µM)
In a few lines:
as §1

In the case of NCI-H1993, the relative viability worked out at 0.8 in the test with Tozasertib + Linsitinib (first compound 0.004 µM); 0.668 with Tozasertib + Linsitinib (first compound 0.01265 µM); 0.649 with Tozasertib + Linsitinib (first compound 0.04 µM); 0.616 with Tozasertib + Linsitinib (first compound 0.1265 µM); 0.527 in the test with Tozasertib + Phenformin (first compound 0.004 µM); 0.482 with Tozasertib + Phenformin (first compound 0.01265 µM). For the same cell line, the relative viability stood at 0.481 with Tozasertib + Phenformin (first compound 0.04 µM); 0.486 with Tozasertib + Phenformin (first compound 0.1265 µM); 0.549 with Tozasertib + Decitabine (first compound 0.004 µM); 0.542 with Tozasertib + Decitabine (first compound 0.01265 µM); 0.574 with Tozasertib + Decitabine (first compound 0.1265 µM); 0.444 with Tozasertib + Trametinib (first compound 0.004 µM). Further, the relative viability with Tozasertib + Trametinib (first compound 0.01265 µM) was 0.396; with Tozasertib + Trametinib (first compound 0.04 µM), 0.5; with Tozasertib + Trametinib (first compound 0.1265 µM), 0.54; with Tozasertib + AZD7762 (first compound 0.004 µM) it was 0.708; with Tozasertib + AZD7762 (first compound 0.01265 µM) it was 0.761; with Tozasertib + AZD7762 (first compound 0.04 µM) it was 0.837. Besides, in the test with Tozasertib + AZD7762 (first compound 0.1265 µM), the relative viability was found to be 0.542.

Take NCI-H2085: the relative viability with Tozasertib + Linsitinib (first compound 0.004 µM) came out at 0.966; with Tozasertib + Linsitinib (first compound 0.01265 µM) it was 0.865; with Tozasertib + Linsitinib (first compound 0.04 µM) it was 0.949; in the test with Tozasertib + Linsitinib (first compound 0.1265 µM), 0.649; in the test with Tozasertib + Phenformin (first compound 0.004 µM), 0.759; with Tozasertib + Phenformin (first compound 0.01265 µM) it was 0.744. Also, the relative viability with Tozasertib + Phenformin (first compound 0.04 µM) turned out to be 0.731; with Tozasertib + Decitabine (first compound 0.004 µM), 0.578; with Tozasertib + Decitabine (first compound 0.01265 µM), 0.508; with Tozasertib + Decitabine (first compound 0.04 µM) it was 0.538; with Tozasertib + Decitabine (first compound 0.1265 µM), 0.485; with Tozasertib + Trametinib (first compound 0.004 µM) it was 0.681. For the same cell line, the relative viability with Tozasertib + Trametinib (first compound 0.01265 µM) was determined as 0.6; with Tozasertib + Trametinib (first compound 0.04 µM), 0.504; with Tozasertib + Trametinib (first compound 0.1265 µM), 0.476; with Tozasertib + AZD7762 (first compound 0.004 µM), 0.928; in the test with Tozasertib + AZD7762 (first compound 0.01265 µM), 0.906; in the test with Tozasertib + AZD7762 (first compound 0.04 µM), 0.971. The relative viability in the test with Tozasertib + AZD7762 (first compound 0.1265 µM) was 0.929.

Regarding NCI-H2087, the relative viability with Tozasertib + Linsitinib (first compound 0.004 µM) turned out to be 0.925; with Tozasertib + Linsitinib (first compound 0.01265 µM), 1.13; with Tozasertib + Linsitinib (first compound 0.04 µM) it was 1.08; with Tozasertib + Linsitinib (first compound 0.1265 µM) it was 0.841; in the test with Tozasertib + Phenformin (first compound 0.004 µM) it was 0.487; in the test with Tozasertib + Phenformin (first compound 0.01265 µM) it was 0.443. The relative viability with Tozasertib + Phenformin (first compound 0.04 µM) amounted to 0.539; with Tozasertib + Phenformin (first compound 0.1265 µM) it was 0.344; with Tozasertib + Decitabine (first compound 0.004 µM), 0.244; with Tozasertib + Decitabine (first compound 0.01265 µM), 0.257; with Tozasertib + Decitabine (first compound 0.04 µM), 0.306; in the test with Tozasertib + Decitabine (first compound 0.1265 µM), 0.143. Moreover, the relative viability with Tozasertib + Trametinib (first compound 0.004 µM) was 0.185; in the test with Tozasertib + Trametinib (first compound 0.01265 µM) it was 0.187; with Tozasertib + Trametinib (first compound 0.04 µM) it was 0.218; with Tozasertib + Trametinib (first compound 0.1265 µM) it was 0.126; with Tozasertib + AZD7762 (first compound 0.004 µM) it was 1.13; with Tozasertib + AZD7762 (first compound 0.01265 µM), 1.24. In addition, the results for the relative viability with Tozasertib + AZD7762 (first compound 0.04 µM) and with Tozasertib + AZD7762 (first compound 0.1265 µM) were 1.33 and 1.01, respectively.

On to NCI-H2126, for which the relative viability with Tozasertib + Linsitinib (first compound 0.004 µM) is 0.623; in the test with Tozasertib + Linsitinib (first compound 0.01265 µM), 0.728; with Tozasertib + Linsitinib (first compound 0.04 µM), 0.825; with Tozasertib + Linsitinib (first compound 0.1265 µM) it was 0.716; with Tozasertib + Phenformin (first compound 0.004 µM) it was 0.604; with Tozasertib + Phenformin (first compound 0.01265 µM), 0.562. Also, the relative viability with Tozasertib + Phenformin (first compound 0.04 µM) worked out at 0.467; in the test with Tozasertib + Phenformin (first compound 0.1265 µM), 0.51; with Tozasertib + Decitabine (first compound 0.004 µM) it was 0.551; with Tozasertib + Decitabine (first compound 0.01265 µM), 0.58; in the test with Tozasertib + Decitabine (first compound 0.04 µM), 0.612; with Tozasertib + Decitabine (first compound 0.1265 µM), 0.606. Further, the relative viability in the test with Tozasertib + Trametinib (first compound 0.004 µM) came out at 0.562; in the test with Tozasertib + Trametinib (first compound 0.01265 µM) it was 0.535; with Tozasertib + Trametinib (first compound 0.04 µM) it was 0.632; with Tozasertib + Trametinib (first compound 0.1265 µM) it was 0.552; in the test with Tozasertib + AZD7762 (first compound 0.004 µM), 1.01; with Tozasertib + AZD7762 (first compound 0.04 µM) it was 1.05. The relative viability in the test with Tozasertib + AZD7762 (first compound 0.1265 µM) amounted to 1.02.

For the cell line NCI-H2347, the relative viability in the test with Tozasertib + Linsitinib (first compound 0.004 µM) amounted to 0.978; in the test with Tozasertib + Linsitinib (first compound 0.01265 µM), 1; in the test with Tozasertib + Linsitinib (first compound 0.04 µM), 0.964; with Tozasertib + Linsitinib (first compound 0.1265 µM), 0.914; with Tozasertib + Phenformin (first compound 0.004 µM), 0.45; with Tozasertib + Phenformin (first compound 0.04 µM), 0.433. The relative viability with Tozasertib + Phenformin (first compound 0.1265 µM) was 0.377; with Tozasertib + Decitabine (first compound 0.004 µM), 0.567; with Tozasertib + Decitabine (first compound 0.01265 µM), 0.365; in the test with Tozasertib + Decitabine (first compound 0.04 µM) it was 0.627; with Tozasertib + Decitabine (first compound 0.1265 µM), 0.74; in the test with Tozasertib + Trametinib (first compound 0.004 µM) it was 0.279. Further, the relative viability worked out at 0.299 with Tozasertib + Trametinib (first compound 0.01265 µM); 0.317 with Tozasertib + Trametinib (first compound 0.04 µM); 0.256 in the test with Tozasertib + Trametinib (first compound 0.1265 µM); 0.686 with Tozasertib + AZD7762 (first compound 0.004 µM); 0.686 with Tozasertib + AZD7762 (first compound 0.01265 µM); 0.835 with Tozasertib + AZD7762 (first compound 0.04 µM). Also, in the test with Tozasertib + AZD7762 (first compound 0.1265 µM), the relative viability stood at 0.75.
